According to US11229634B2, “Methods for treating gastrointestinal disorders using FXR agonists” (Novartis AG, priority 2016, dated 2022):
Converted amounts (≈) assume the structure as drawn. “Also recorded” adds a separate entry of the source.

Legend:
FXR = molecular target: T1, FXR (Homo sapiens, UniProt Q96RI1); details: clinical studies in PBC or NASH subjects; cited from earlier work
T1 construct: OCA was tested at doses between 5 mg and 50 mg in PBC subjects or NASH subjects; host or cells: human subjects (PBC, NASH), endogenous receptor
T1 sequence (Q96RI1 1-486): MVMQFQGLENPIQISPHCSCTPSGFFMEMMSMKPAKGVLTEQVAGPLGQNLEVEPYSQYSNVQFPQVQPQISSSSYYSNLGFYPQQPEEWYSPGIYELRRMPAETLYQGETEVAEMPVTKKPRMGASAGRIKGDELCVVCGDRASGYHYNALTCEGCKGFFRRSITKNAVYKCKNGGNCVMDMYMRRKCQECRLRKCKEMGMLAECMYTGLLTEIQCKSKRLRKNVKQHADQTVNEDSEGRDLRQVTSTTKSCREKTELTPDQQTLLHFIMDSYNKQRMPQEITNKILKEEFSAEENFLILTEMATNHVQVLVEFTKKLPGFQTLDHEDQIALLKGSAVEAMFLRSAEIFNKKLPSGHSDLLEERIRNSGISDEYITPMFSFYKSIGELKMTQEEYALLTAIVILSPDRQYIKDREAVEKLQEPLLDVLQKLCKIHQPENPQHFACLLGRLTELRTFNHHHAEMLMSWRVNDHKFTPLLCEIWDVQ

[1] = Single oral dose plasma pharmacokinetics in healthy subjects; format: in vivo; details: dose range 10 μg to 3000 μg, human
ANIT-induced cholestasis [2] = test: PK/PD modeling of effective exposure in rat ANIT chronic treatment model; format: in vivo; details: drug concentration producing 80% of maximum effect
Procedure: Male Wistar rats were treated with ANIT (0.1% ANIT in chow diet) for 2 weeks. […] The serum samples were collected on day 14 for analysis of biomarkers of hepatobiliary injury (including ALT, AST, bilirubin and bile acids). The PK samples (pre-dose, 0.5, 1, 3, 7, 10 and 24 h, n=3/dose group) were taken on day 13 (at steady-state). AUC0-24 h was determined using Phoenix WinNonlin 6.3 software and the average concentrations were calculated from mean of AUC0-24 h at each dose (divided the AUC0-24 h by 24 h). The mean biomarker data were compared to the PK data (average concentration at each dose) for the modeling. The IC80 was determined using the Inhibitory effect Imax model (effect C=0 at Imax, C=infinity at E0) built in Phoenix WinNonlin 6.3 software. […] Therefore, we chose to use a mean of the IC80 for the four biomarkers (total bilirubin, total bile acids, ALT and AST) as the IC80 for efficacy in this model. […]
The PK samples (pre-dose, 0.5, 1, 3, 7, 10 and 24 h, n=3/dose group) were taken on day 13 (at steady-state). AUC0-24 h was determined using Phoenix WinNonlin 6.3 software and the average concentrations were calculated from mean of AUC0-24 h at each dose (divided the AUC0-24 h by 24 h). […] The IC80 was determined using the Inhibitory effect Imax model (effect C=0 at Imax, C=infinity at E0) built in Phoenix WinNonlin 6.3 software.

FGF19 = details: single and repeated dosing, human
[3] = Food effect (high-fat meal vs fasted) on pharmacokinetics; format: in vivo; details: human
Procedure: To avoid variability in drug exposure, it is recommended that throughout the treatment period, patients will be directed to take study drug at home with ˜240 mL (8 ounces) of water in the morning in a fasting state, at least 30 min prior to the first beverage apart from water and 60 min prior to first meal of the day, preferably at the same time of the day.

[4] = Safety and tolerability in healthy subjects; format: in vivo, human; details: repeated daily 100 μg; one ALT>ULN, one ALT>3×ULN, one ALT>5×ULN
[5] = Estimation of human efficacious dose from rat efficacious exposure and human PK; details: human, plasma, oral, 6 μg; estimated, molar
Procedure: The human efficacy dose was calculated based on the efficacious exposure in the rat ANIT-induced disease model. Since the in vitro potency and protein binding between human and rat were similar, the EC80 exposure in human was assumed to be the same as that in rat (3.05 ng*h/mL),

ANIT-induced cholestasis [6] = test: Chronic treatment rat ANIT model of cholestasis, serum markers; format: in vivo; details: oral dosing 0.01 to 3 mg/kg
Procedure: Rats were treated with alpha-naphthyl-isothiocyanate (ANIT) (0.1% w/w) in food for 3 days prior to treatment with the compound at the indicated doses or with vehicle control (“Veh”). A non-cholestatic control group was fed standard chow diet without ANIT, and serve as the non-cholestatic control animals (“Control”), After […] days of oral dosing, the indicated analyte was measured in serum. LLQ, lower limit of quantitation. Mean±SEM; n=5.

[7] = Multiple oral dose plasma pharmacokinetics in healthy subjects; format: in vivo; details: human

Row | SMILES | side effect associated with treatment (FXR) | dose dependence of mean Cmax and AUCinf [1] | IC80, total bilirubin (ANIT-induced cholestasis [2]) | FGF19 response to dose (FGF19) | median Tmax, fasted state ([3]; fasted comparator of food effect) | increase of mean AUCinf with high-fat meal compared to the fasted state [3] | increase of mean Cmax with high-fat meal compared to the fasted state [3] | subjects with elevation of transaminases (ALT and AST) [4] | Cmax [5] | dose from which hepatobiliary injury indicators (AST, ALT, bilirubin, bile acids) improved (ANIT-induced cholestasis [6]) | dose dependence of Cmax and AUC (AUCtau/AUCinf), plasma exposure ([7]; multiple once daily doses, dose range 10 μg to 100 μg) | day by which steady-state was reached ([7]; once daily oral dosing 10-100 μg, trough levels)
1 | CC[C@H]1[C@@H](O)[C@@H]2[C@H](CC[C@]3(C)[C@@H]([C@H](C)CCC(=O)O)CC[C@@H]23)[C@@]2(C)CC[C@@H](O)C[C@@H]12 [OCA, 6α-ethyl-chenodeoxycholic acid] | increased pruritus | – | – | – | – | – | – | – | – | – | – | –
2 | O=C(O)c1cc(F)c2nc(N3C4CC[C@H]3CC(OCc3c(-c5ccccc5OC(F)(F)F)noc3C3CC3)C4)sc2c1 (stereo partly drawn) [Compound A, 2-[(1R,3r,5S)-3-({5-cyclopropyl-3-[2-(trifluoromethoxy)phenyl]-1,2-oxazol-4-yl}methoxy)-8-azabicyclo[3.2.1]octan-8-yl]-4-fluoro-1,3-benzothiazole-S-carboxylic acid] | – | approximately dose proportional increase | 0.223 ng/mL (≈ 0.369 nM) | dose-dependent increases in FGF19 | 4 h | approximately 60% | approximately 60% | 3 subjects | ~0.3 nM | 0.01 mg/kg | approximately dose-proportional increase; also recorded: approximately dose proportional increase | ≤ 4 days
